In brackets after ≈: the same amount, converted by molar mass. Where two headings read alike, the source gives them in different places. No end group written: not given here.
Experiments:
HIV-1 strain IIIB = format: cell-based, human immunodeficiency virus type 1; settings: for EC50: 2 h exposure
Experimental: Peptide effectiveness was determined in an HIV-1 infection inhibition assay using P4-R5 MAGI indicator cells. […] The cells were then infected with HIV-1 strain IIIB (Advanced Biotechnologies, Inc., Columbia, MD; 10^7.8 TCID50/mL) at multiplicities of infection (MOI) of 0.6, 0.05, or 0.03 in the presence or absence of peptide or dextran sulfate (DS) (Sigma, St. Louis, MO). Following a 2 h incubation at 37°C, the cells were washed with PBS, provided with 200 μL of new media, and incubated for an additional 46 h. Levels of infection were measured using the Galacto-Star-β-Galactosidase Reporter Gene Assay System for Mammalian Cells (Applied Biosystems, Carlsbad, CA) as described by the manufacturer. Chemiluminescence was measured using a Glomax Luminometer plate reader (Promega, Madison, WI).

[1] = exposure durations as long as 48 h, not conjugated to payload; cited from earlier work
P4-R5 MAGI cells = settings: 2 h exposure at concentrations below 1 mg/mL; MTT immediately after exposure or 24 h or 48 h after exposure; two independent assays in quadruplicate
Experimental: P4-R5 MAGI cells were plated at a concentration of 1.5 × 10^4 cells/well in a flat-bottom 96-well plate. The cells were then exposed to the indicated half log concentrations of peptide and incubated at 37°C for 2 h. Following exposure, the cells were washed with PBS and then assayed for cell viability immediately or at 24 h or 48 h after exposure. Viability was measured using a 3-(4,5-dimethylthiazol-2-yl)-2,5-diphenyltetrazolium bromide (MTT) assay as previously described.
Mean values and standard deviations were calculated from two independent assays in which each concentration was examined in quadruplicate.

HIV-1 = settings: preliminary studies, data not shown

**Q.** What does the source list for N=C(N)NCCC[C@H](NC(=O)[C@H](CCCNC(=N)N)NC(=O)[C@H](CCCNC(=N)N)NC(=O)[C@H](CCC(N)=O)NC(=O)[C@H](CCCNC(=N)N)NC(=O)[C@H](CCCNC(=N)N)NC(=O)[C@H](CCCCN)NC(=O)[C@H](CCCCN)NC(=O)[C@H](CCCNC(=N)N)NC(=O)CN)C(=O)O [Tat peptide]?
**A.** EC50 (HIV-1 strain IIIB; HIV-1 IIIB, 0.05 MOI (8.8 x 10^3 infectious virions/mL), P4-R5 MAGI cells): 140 µg/mL; EC50 (HIV-1 strain IIIB; HIV-1 IIIB, 0.6 MOI, P4-R5 MAGI cells, same value as 0.094 mg/mL in molar units): 50 µM; concentration up to which peptide alone had no effect on cell viability [1]: up to 100 μM; effect on P4-R5 MAGI cell viability (P4-R5 MAGI cells): no effect

**Q.** With dextran sulfate [reference compound] as the molecule, how does the “EC50 (concentration that resulted in 50% reduction in infection relative to mock-treated, HIV-1-infected cells)” value (HIV-1 strain IIIB; HIV-1 IIIB, 0.6 MOI, P4-R5 MAGI cells, 2 h exposure with virus, wash, further 46 h, beta-galactosidase chemiluminescence, two independent assays in quadruplicate) read?
**A.** The value was 0.7 µg/mL.

**Q.** With nona-arginine as the molecule, how does the anti-HIV-1 activity (HIV-1) read?
**A.** The anti-HIV-1 activity was “anti-HIV-1 activity”.

**Q.** With RRKKRRRRRR [TPvar3] as the molecule, how does the “EC50 (concentration that resulted in 50% reduction in infection relative to mock-treated, HIV-1-infected cells)” value (HIV-1 strain IIIB; strain IIIB, 2 h) read?
**A.** The value was 25 µg/mL.

**Q.** Which “EC50 (concentration that resulted in 50% reduction in infection relative to mock-treated, HIV-1-infected cells)” value (HIV-1 strain IIIB; strain IIIB, 2 h) does the source give for N=C(N)NCCC[C@H](NC(=O)[C@H](CCCNC(=N)N)NC(=O)[C@H](CCCNC(=N)N)NC(=O)[C@H](CCCNC(=N)N)NC(=O)[C@H](CCCNC(=N)N)NC(=O)[C@H](CCCNC(=N)N)NC(=O)[C@H](CCCNC(=N)N)NC(=O)[C@H](CCCNC(=N)N)NC(=O)[C@H](CCCNC(=N)N)NC(=O)[C@@H](N)CCCNC(=N)N)C(=O)O [R-10, decaarginine] here?
**A.** The value was 14 µg/mL (≈ 8.86 µM).

Source: article PMC3272803, “Infection by CXCR4-Tropic Human Immunodeficiency Virus Type 1 Is Inhibited by the Cationic Cell-Penetrating Peptide Derived from HIV-1 Tat” (International Journal of Peptides, 2012)
